What is called pIC50 is the negative decadic logarithm of the IC50, by convention in mol/L. Low values mean a large IC50, high ones a small IC50.

The structures appear in SMILES notation. pIC50: −log10 of the molar value. Where a name gives a salt, the structure may show the parent alone. A value given as a limit tells only on which side of the number the result lay.

For this experiment, the target named is h-Sortilin (Homo sapiens (Human), UniProt Q99523). Description: Neurotensin (NTS) scintillation proximity assay (SPA): displacement of [3H]-neurotensin binding. To be noted: 150 nM 6his-Sortilin, 5 nM [3H]-Neurotensin, average of at least 2 determinations. As for the experimental part: The exemplified compounds of the invention were tested in a Neurotensin (NTS) scintillation proximity assay (SPA). NTS, which is a 13 amino acid neuropeptide, is a sortilin ligand. The IC50 is a measure of the amount of the compound required to inhibit the binding of NTS to sortilin by 50%. […] Compound affinity was determined by measuring the displacement of [^3H]-neurotensin binding to h-Sortilin in SPA format. […] IC50 values were calculated by nonlinear regression using the sigmoid concentration-response (variable slope) using CDD Vault software. All values reported are average of at least 2 determinations.
h-Sortilin, sequence (Q99523 78-831): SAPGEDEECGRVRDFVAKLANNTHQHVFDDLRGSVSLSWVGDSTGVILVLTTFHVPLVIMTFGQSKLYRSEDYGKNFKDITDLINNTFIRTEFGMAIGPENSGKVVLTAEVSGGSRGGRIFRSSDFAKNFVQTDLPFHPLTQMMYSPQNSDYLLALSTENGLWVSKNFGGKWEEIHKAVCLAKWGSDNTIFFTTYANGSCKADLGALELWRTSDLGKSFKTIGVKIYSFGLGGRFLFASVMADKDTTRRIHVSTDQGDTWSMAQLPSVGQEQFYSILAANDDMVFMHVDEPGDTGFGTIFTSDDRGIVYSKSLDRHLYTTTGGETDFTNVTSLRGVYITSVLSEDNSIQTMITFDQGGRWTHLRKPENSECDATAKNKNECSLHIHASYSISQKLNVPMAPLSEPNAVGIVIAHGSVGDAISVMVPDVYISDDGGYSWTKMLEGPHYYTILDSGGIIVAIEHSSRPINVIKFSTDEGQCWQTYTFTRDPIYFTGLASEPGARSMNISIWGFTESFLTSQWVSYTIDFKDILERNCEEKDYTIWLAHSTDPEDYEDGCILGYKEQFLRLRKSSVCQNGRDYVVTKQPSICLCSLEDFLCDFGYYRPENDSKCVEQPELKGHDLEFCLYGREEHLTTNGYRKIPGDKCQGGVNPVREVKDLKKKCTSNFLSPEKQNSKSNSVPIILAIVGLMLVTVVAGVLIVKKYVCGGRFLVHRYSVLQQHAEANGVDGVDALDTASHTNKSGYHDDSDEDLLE

For `COc1ccc(CN[C@@H](CCC(C)(C)C)C(=O)O)cc1F` [Example 37, (2S)-2-{[(3-fluoro-4-methoxyphenyl)methyl]amino}-5,5-dimethylhexanoic acid], the negative-log IC50 (pIC50) was 6.15. `CC(C)(C)CC[C@H](NCc1ccc2nccnc2c1)C(=O)O` [Example 42, (2S)-5,5-dimethyl-2-{[(quinoxalin-6-yl)methyl]amino}hexanoic acid] showed a negative-log IC50 (pIC50) of 6.40. Same read-out and setting: to `Cc1cc2cccc(CN[C@@H](CCC(C)(C)C)C(=O)O)c2cn1` [Example 4, (2S)-5,5-dimethyl-2-{[(3-methylisoquinolin-8-yl)methyl]amino}hexanoic acid] belongs 6.18; to `Cn1ccc2ccc(CN[C@@H](CCC(C)(C)C)C(=O)O)cc21` [Example 67], 5.48. The same measure, in the same setting: under `COc1cc(CN[C@@H](CCC(C)(C)C)C(=O)O)ccn1` [Example 87] stands 6.28. The same measure, in the same setting: to `COc1cncc(CN[C@@H](CCC(C)(C)C)C(=O)O)c1` [Example 86] belongs 6.10. For the molecule `Cc1cnccc1CN[C@@H](CCC(C)(C)C)C(=O)O` [Example 93], the pIC50 was 5.79.

`CC(=O)c1cccc(CN[C@@H](CCC(C)(C)C)C(=O)O)c1` [Example 139, (2S)-2-{[(3-acetylphenyl)methyl]amino}-5,5-dimethylhexanoic acid] showed a negative logarithm of the IC50 (pIC50) of 6.24. On the same count and under the same terms, under `CC(C)(C)CC[C@H](NCc1cccc(CO)c1)C(=O)O` [Example 25, (2S)-2-({[3-(hydroxymethyl)phenyl]methyl}amino)-5,5-dimethylhexanoic acid] stands 5.86. Turning to `CC(C)(C)CC[C@H](NCc1cccc2ncccc12)C(=O)O` [Example 48, (2S)-5,5-dimethyl-2-{[(quinolin-5-yl)methyl]amino}hexanoic acid], the pIC50 is 5.97. On the same count and under the same terms, under `Cc1nc2cc(CN[C@@H](CCC(C)(C)C)C(=O)O)ccc2s1` [Example 100, (2S)-5,5-dimethyl-2-{[(2-methyl-1,3-benzothiazol-5-yl)methyl]amino}hexanoic acid] stands 6.42; under `CC(C)(C)CC[C@H](NCc1cccc2[nH]ccc12)C(=O)O` [Example 62, (2S)-2-{[(1H-indol-4-yl)methyl]amino}-5,5-dimethylhexanoic acid], < 5.00. For `CC(C)(C)CC[C@H](NCc1ccccc1OC(F)(F)F)C(=O)O` [Example 10, (2S)-5,5-dimethyl-2-({[2-(trifluoromethoxy)phenyl]methyl}amino)hexanoic acid], the pIC50 was 6.01.

Regarding `Cc1cncc(CN[C@@H](CCC(C)(C)C)C(=O)O)c1` [Example 95], the pIC50 is 6.16.

In the case of `C[C@H](N[C@@H](CCC(C)(C)C)C(=O)O)c1ccccc1` [Example 15, (S)-5,5-dimethyl-2-(((S)-1-phenylethyl)amino)hexanoic acid hydrochloride], the pIC50 was 5.46. On the same count and under the same terms, under `CC(C)(C)CC[C@H](NCc1cccc2[nH]ncc12)C(=O)O` [Example 134, (2S)-2-{[(2H-indazol-4-yl)methyl]amino}-5,5-dimethylhexanoic acid] stands 5.88. Still for that read-out and setting: under `CC(C)(C)CC[C@H](NCc1ccnc2[nH]ccc12)C(=O)O` [Example 44, (2S)-5,5-dimethyl-2-[({1H-pyrrolo[2,3-b]pyridin-4-yl}methyl)amino]hexanoic acid] stands 6.07; under `CC(C)(C)CC[C@H](NCc1cccc2cccnc12)C(=O)O` [Example 47, (2S)-5,5-dimethyl-2-{[(quinolin-8-yl)methyl]amino}hexanoic acid], 5.71. `Cn1cnc2c(CN[C@@H](CCC(C)(C)C)C(=O)O)cccc21` [Example 138, (S)-5,5-dimethyl-2-(((1-methyl-1H-benzo[d]imidazol-4-yl)methyl)amino)hexanoic acid, Mesylic acid] gave a pIC50 of 6.13.

As for `CC(C)(C)CC[C@H](NCc1ccc2occc2c1)C(=O)O` [Example 117, (2S)-2-{[(1-benzofuran-5-yl)methyl]amino}-5,5-dimethylhexanoic acid], the negative logarithm of the IC50 (pIC50) is 6.37. On to `Cn1nccc1CN[C@@H](CCC(C)(C)C)C(=O)O` [Example 52, (2S)-5,5-dimethyl-2-{[(1-methyl-1H-pyrazol-5-yl)methyl]amino}hexanoic acid], for which the pIC50 is 5.81.

Regarding `CC(C)(C)CC[C@H](N[C@H](c1ccccc1)C(F)(F)F)C(=O)O` [Example 18, (S)-5,5-dimethyl-2-(((R)-2,2,2-trifluoro-1-phenylethyl)amino)hexanoic acid], the pIC50 was 6.14.

In turn, `COc1ccc(CN[C@@H](CCC(C)(C)C)C(=O)O)cc1O` [Example 91, (2S)-2-{[(3-hydroxy-4-methoxyphenyl)methyl]amino}-5,5-dimethylhexanoic acid] had a negative-log IC50 (pIC50) of 6.41. With `Cn1cnc2cc(CN[C@@H](CCC(C)(C)C)C(=O)O)ccc21` [Example 110, (2S)-5,5-dimethyl-2-{[(1-methyl-1H-1,3-benzodiazol-5-yl)methyl]amino}hexanoic acid], the pIC50 is 6.34. On the same count and under the same terms, under `CCn1ccc2c(CN[C@@H](CCC(C)(C)C)C(=O)O)cccc21` [Example 135, (2S)-2-{[(1-ethyl-1H-indol-4-yl)methyl]amino}-5,5-dimethylhexanoic acid] stands 6.38; under `CC(C)(C)CC[C@H](NCc1ccnc(Cl)c1F)C(=O)O` [Example 89, (2S)-2-{[(2-chloro-3-fluoropyridin-4-yl)methyl]amino}-5,5-dimethylhexanoic acid], 6.10; under `CC(C)(C)CC[C@H](NCc1cc(Cl)cc(Cl)c1)C(=O)O` [Example 32, (2S)-2-{[(3,5-dichlorophenyl)methyl]amino}-5,5-dimethylhexanoic acid], 6.08. Still for that read-out and setting: under `CC(C)(C)CC[C@H](NCc1ccc(Cl)cc1)C(=O)O` [Example 76, (2S)-2-{[(4-chlorophenyl)methyl]amino}-5,5-dimethylhexanoic acid] stands 6.10.

Molecule `C[C@@H](N[C@@H](CCC(C)(C)C)C(=O)O)c1ccccc1` [Example 14, (S)-5,5-dimethyl-2-(((R)-1-phenylethyl)amino)hexanoic acid hydrochloride] showed a pIC50 of 6.21. As to `CC(C)(C)CC[C@H](N[C@@H](c1ccccc1)C(F)(F)F)C(=O)O` [Example 16, (S)-5,5-dimethyl-2-(((S)-2,2,2-trifluoro-1-phenylethyl)amino)hexanoic acid], the pIC50 is 5.83.

With `CC(C)(C)CC[C@H](NCc1cnc2[nH]ccc2c1)C(=O)O` [Example 43, (2S)-5,5-dimethyl-2-[({1H-pyrrolo[2,3-b]pyridin-5-yl}methyl)amino]hexanoic acid], the pIC50 is 6.33. `CC(C)(C)CC[C@H](NCc1ccc2ncsc2c1)C(=O)O` [Example 53, (2S)-2-{[(1,3-benzothiazol-6-yl)methyl]amino}-5,5-dimethylhexanoic acid] had a negative logarithm of the IC50 (pIC50) of 6.23. Regarding `Cc1cc(CN[C@@H](CCC(C)(C)C)C(=O)O)ccn1` [Example 132], the negative logarithm of the IC50 (pIC50) is 6.06. The molecule `CC(C)(C)CC[C@H](NCc1cccc(-n2ccnc2)c1)C(=O)O` [Example 57, (2S)-2-({[3-(1H-imidazol-1-yl)phenyl]methyl}amino)-5,5-dimethylhexanoic acid] showed a negative-log IC50 (pIC50) of 5.89.

In the case of `CC(C)(C)CC[C@H](NCc1ccccc1-c1ccncc1)C(=O)O` [Example 56, (2S)-5,5-dimethyl-2-({[2-(pyridin-4-yl)phenyl]methyl}amino)hexanoic acid], the pIC50 was 5.72. On the same count and under the same terms, under `CC(C)(C)CC[C@H](N[C@@H](c1ccccc1)C(F)F)C(=O)O` [Example 17, (2S)-2-{[(1S)-2,2-difluoro-1-phenylethyl]amino}-5,5-dimethylhexanoic acid] stands 5.79. Still for that read-out and setting: to `Cc1cc(=O)oc2c(CN[C@@H](CCC(C)(C)C)C(=O)O)c(O)ccc12` [Example 1, (S)-2-(((7-hydroxy-4-methyl-2-oxo-2H-chromen-8-yl)methyl)amino)-5,5-dimethylhexanoic acid] belongs 7.12.

`CC(C)(C)CC[C@H](NCc1ccccc1CO)C(=O)O` [Example 59, (S)-2-((2-(hydroxymethyl)benzyl)amino)-5,5-dimethylhexanoic acid hydrochloride] had a pIC50 of 5.89. In the case of `CC(N[C@@H](CCC(C)(C)C)C(=O)O)c1cncnc1` (stereo partly drawn) [Example 143, (2S)-5,5-dimethyl-2-((1-(pyrimidin-5-yl)ethyl)amino)hexanoic acid, HCl], the pIC50 (HCl) is 6.05. In turn, `Cn1ncc2ccc(CN[C@@H](CCC(C)(C)C)C(=O)O)cc21` [Example 54, (2S)-5,5-dimethyl-2-{[(1-methyl-1H-indazol-6-yl)methyl]amino}hexanoic acid] showed a pIC50 of 6.06. Still for that read-out and setting: to `CC(C)(C)CC[C@H](NCc1c(F)cccc1F)C(=O)O` [Example 12, (2S)-2-{[(2,6-difluorophenyl)methyl]amino}-5,5-dimethylhexanoic acid] belongs 5.55. Still for that read-out and setting: to `CC(C)(C)CC[C@H](NCc1cccc2c1CCCC2)C(=O)O` [Example 39, (2S)-5,5-dimethyl-2-{[(5,6,7,8-tetrahydronaphthalen-1-yl)methyl]amino}hexanoic acid] belongs 6.44. For `Cc1ccc(CN[C@@H](CCC(C)(C)C)C(=O)O)cn1` [Example 72], the negative-log IC50 (pIC50) was 5.91. Still for that read-out and setting: under `COc1ccc([C@H](C)N[C@@H](CCC(C)(C)C)C(=O)O)cc1OC` [Example 108, (S)-2-(((S)-1-(3,4-dimethoxyphenyl)ethyl)amino)-5,5-dimethylhexanoic acid] stands 6.43; under `CC(C)(C)CC[C@H](NCc1ccc2ccccc2n1)C(=O)O` [Example 36, (2S)-5,5-dimethyl-2-{[(quinolin-2-yl)methyl]amino}hexanoic acid], 5.80.

The values are drawn from US20250268854A1, “2-AMINO-5,5-DIMETHYLHEXANOIC ACID DERIVATIVES AS SORTILIN MODULATORS FOR USE IN THE TREATMENT OF DISEASE OF THE CENTRAL NERVOUS SYSTEM” (c/o Vesper Bio ApS, priority 2021, published 2025).
